Results as given in patent US10472346B2, “Potent gamma-secretase modulators” (The General Hospital Coporation, priority 2014, dated 2019).

Test system: Aβ42
Experiment: Aβ42 IC50 assay (SHSYSY-APP cell-based screening, UCSD sandwich Aβ42 ELISA)
Excerpt: FIG. 8: Representative concentration response curves of Compound 1 using our primary and orthogonal medium throughput SHSYSY-APP cell-based screening assays (10). Compounds are first screened two times in triplicate in our UCSD sandwich Aβ42 ELISA on sequential days and the average of the two assays must be within 3-fold of each other before being entered into the CDD relational database. The UCSD sandwich ELISA assay can easily handle 20 compounds per week. Compounds with Aβ42 IC50 values <100 nM continue through the testing funnel. The Z′ score and the % CV for the UCSD Aβ42 sandwich ELISA assay are 0.8 and 4, respectively. For the Meso Scale triplex assay the Z′ scores are 0.7, 0.9 and 0.6 Aβ42, Aβ40 and Aβ38, respectively and the % CV's are 7, 2 and 1 for Aβ42, Aβ40 and Aβ38, respectively. Aβ total peptides are measured using a sandwich ELISA.
Tabular Results of A1142 Assays Conducted on Compounds of Examples 5-102. Assays are Aβ42 IC50 (nM).

Structure (SMILES) | IC50 [nM]
CCc1cc(-c2ccc(-n3cnc(C)c3)c(OC)n2)nnc1N[C@@H](C)c1ccc(F)cc1 [Example 5, (S)-4-Ethyl-N-(1-(4-fluorophenyl)ethyl)-6-(6-methoxy-5-(4-methyl-1H-imidazol-1-yl)pyridin-2-yl)pyridazin-3-amine] | 7.8
CCc1cc(-c2ccc(-n3cnc(C)c3)c(OC)n2)nnc1N[C@@H](C)c1ccccc1 [Example 7, (S)-4-ethyl-6-(6-methoxy-5-(4-methyl-1H-imidazol-1-yl)pyridin-2-yl)-N-(1-phenylethyl)pyridazin-3-amine] | 5.5
CCc1cc(-c2ccc(-n3cnc(C)c3)c(OC)n2)nnc1NCc1ccc(F)cc1 [Example 8, 4-ethyl-N-(4-fluorobenzyl)-6-(6-methoxy-5-(4-methyl-1H-imidazol-1-yl)pyridin-2-yl)pyridazin-3-amine] | 33
CCc1cc(-c2ccc(-n3cnc(C)c3)c(OC)n2)nnc1N[C@H](C)c1ccccc1 [Example 9, (R)-4-ethyl-6-(6-methoxy-5-(4-methyl-1H-imidazol-1-yl)pyridin-2-yl)-N-(1-phenylethyl)pyridazin-3-amine] | 46
CCc1cc(-c2ccc(-n3cnc(C)c3)c(OC)n2)nnc1N[C@H](C)c1ccc(F)cc1 [Example 10, (R)-4-ethyl-N-(1-(4-fluorophenyl)ethyl)-6-(6-methoxy-5-(4-methyl-1H-imidazol-1-yl)pyridin-2-yl)pyridazin-3-amine] | 47.5
COc1nc(-c2cc(C(C)C)c(N[C@@H](C)c3ccc(F)cc3)nn2)ccc1-n1cnc(C)c1 [Example 11, (S)—N-(1-(4-fluorophenyl)ethyl)-4-isopropyl-6-(6-methoxy-5-(4-methyl-1H-imidazol-1-yl)pyridin-2-yl)pyridazin-3-amine] | 7.5
COc1nc(-c2cc(C(C)C)c(N[C@@H](C)c3ccccc3)nn2)ccc1-n1cnc(C)c1 [Example 14, (S)-4-isopropyl-6-(6-methoxy-5-(4-methyl-1H-imidazol-1-yl)pyridin-2-yl)-N-(1-phenylethyl)pyridazin-3-amine] | 7.2
COc1nc(-c2nnc(N[C@@H](C)c3ccc(F)cc3)c(C)c2C)ccc1-n1cnc(C)c1 [Example 15, (S)—N-(1-(4-Fluorophenyl)ethyl)-6-(6-methoxy-5-(4-methyl-1H-imidazol-1-yl)pyridin-2-yl)-4,5-dimethylpyridazin-3-amine] | 67
COc1nc(-c2nnc(N[C@@H](C)c3ccccc3)c(C)c2C)ccc1-n1cnc(C)c1 [Example 17, (S)-6-(6-methoxy-5-(4-methyl-1H-imidazol-1-yl)pyridin-2-yl)-4,5-dimethyl-N-(1-phenylethyl)pyridazin-3-amine] | 37
COc1nc(-c2nnc(NCc3ccc(F)cc3)c(C)c2C)ccc1-n1cnc(C)c1 [Example 18, N-(4-fluorobenzyl)-6-(6-methoxy-5-(4-methyl-1H-imidazol-1-yl)pyridin-2-yl)-4,5-dimethylpyridazin-3-amine] | 82
COc1nc(-c2cc(C)c(N(C)[C@@H](C)c3ccc(F)cc3)nn2)ccc1-n1cnc(C)c1 [Example 19, (S)—N-(1-(4-fluorophenyl)ethyl)-6-(6-methoxy-5-(4-methyl-1H-imidazol-1-yl)pyridin-2-yl)-N,4-dimethylpyridazin-3-amine] | 240
CCN(c1nnc(-c2ccc(-n3cnc(C)c3)c(OC)n2)cc1C)[C@@H](C)c1ccc(F)cc1 [Example 20, (S)—N-ethyl-N-(1-(4-fluorophenyl)ethyl)-6-(6-methoxy-5-(4-methyl-1H-imidazol-1-yl)pyridin-2-yl)-4-methylpyridazin-3-amine] | 132
CC[C@@H](c1ccc(F)cc1)N(C)c1nnc(-c2ccc(-n3cnc(C)c3)c(OC)n2)cc1C [Example 21, (S)—N-(1-(4-fluorophenyl)propyl)-6-(6-methoxy-5-(4-methyl-1H-imidazol-1-yl)pyridin-2-yl)-N,4-dimethylpyridazin-3-amine] | 61
COc1nc(-c2ccc(N[C@@H](C)c3ccccc3)nn2)ccc1-n1cnc(C)c1 [Example 22, (S)-6-(6-methoxy-5-(4-methyl-1H-imidazol-1-yl)pyridin-2-yl)-N-(1-phenylethyl)pyridazin-3-amine] | 16
COc1nc(-c2ccc(NC(C)(C)c3ccc(F)cc3)nn2)ccc1-n1cnc(C)c1 [Example 23, N-(2-(4-Fluorophenyl)propan-2-yl)-6-(6-methoxy-5-(4-methyl-1H-imidazol-1-yl)pyridin-2-yl)pyridazin-3-amine] | 22

The remaining lines, values ahead:

IC50 [nM] | Structure (SMILES)
29 | COc1nc(-c2cc(C)c(NC(C)Cc3ccc(F)cc3)nn2)ccc1-n1cnc(C)c1 (racemic) [Example 54, (+/−)—N-(1-(4-fluorophenyl)propan-2-yl)-6-(6-methoxy-5-(4-methyl-1H-imidazol-1-yl)pyridin-2-yl)-4-methylpyridazin-3-amine]
42 | COc1nc(-c2cc(C)c(NC(C)c3nc4ccccc4o3)nn2)ccc1-n1cnc(C)c1 (racemic) [Example 74, (+/−)—N-(1-(benzo[d]oxazol-2-yl)ethyl)-6-(6-methoxy-5-(4-methyl-1H-imidazol-1-yl)pyridin-2-yl)-4-methylpyridazin-3-amine]
21 | COc1nc(-c2nnc(N[C@@H](C)c3ccc(F)cc3)cc2C)ccc1-n1cnc(C)c1 [Example 27, (S)—N-(1-(4-fluorophenyl)ethyl)-6-(6-methoxy-5-(4-methyl-1H-imidazol-1-yl)pyridin-2-yl)-5-methylpyridazin-3-amine]
12.8 | COc1nc(-c2nnc(N[C@@H](C)c3ccc(F)cc3)c3c2CCC3)ccc1-n1cnc(C)c1 [Example 29, (S)—N-(1-(4-Fluorophenyl)ethyl)-4-(6-methoxy-5-(4-methyl-1H-imidazol-1-yl)pyridin-2-yl)-6,7-dihydro-5H-cyclopenta[d]pyridazin-1-amine]
5.8 | COc1nc(-c2cc(C)c(N[C@@H](C)c3ccc(Cl)cc3)nn2)ccc1-n1cnc(C)c1 [Example 31, (S)—N-(1-(4-chlorophenyl)ethyl)-6-(6-methoxy-5-(4-methyl-1H-imidazol-1-yl)pyridin-2-yl)-4-methylpyridazin-3-amine]
6.8 | COc1nc(-c2cc(C)c(N[C@@H](C)c3cccc(Cl)c3)nn2)ccc1-n1cnc(C)c1 [Example 33, (S)—N-(1-(3-chlorophenyl)ethyl)-6-(6-methoxy-5-(4-methyl-1H-imidazol-1-yl)pyridin-2-yl)-4-methylpyridazin-3-amine]
12 | COc1nc(-c2cc(C)c(N[C@@H](C)c3ccccc3)nn2)ccc1-n1cnc(C)c1 [Example 35, (S)-6-(6-methoxy-5-(4-methyl-1H-imidazol-1-yl)pyridin-2-yl)-4-methyl-N-(1-phenylethyl)pyridazin-3-amine]
6.5 | COc1ccc([C@H](C)Nc2nnc(-c3ccc(-n4cnc(C)c4)c(OC)n3)cc2C)cc1 [Example 36, (S)-6-(6-methoxy-5-(4-methyl-1H-imidazol-1-yl)pyridin-2-yl)-N-(1-(4-methoxyphenyl)ethyl)-4-methylpyridazin-3-amine]
6.3 | COc1nc(-c2cc(C)c(N[C@@H](C)c3ccc(C(F)(F)F)cc3)nn2)ccc1-n1cnc(C)c1 [Example 37, (S)-6-(6-methoxy-5-(4-methyl-1H-imidazol-1-yl)pyridin-2-yl)-4-methyl-N-(1-(4-(trifluoromethyl)phenyl)ethyl)pyridazin-3-amine]
7 | COc1nc(-c2cc(C)c(N[C@@H](C)c3cccc(F)c3)nn2)ccc1-n1cnc(C)c1 [Example 38, (S)—N-(1-(3-fluorophenyl)ethyl)-6-(6-methoxy-5-(4-methyl-1H-imidazol-1-yl)pyridin-2-yl)-4-methylpyridazin-3-amine]
6.5 | COc1nc(-c2cc(C)c(N[C@@H](C)c3ccc(F)c(F)c3)nn2)ccc1-n1cnc(C)c1 [Example 39, (S)—N-(1-(3,4-difluorophenyl)ethyl)-6-(6-methoxy-5-(4-methyl-1H-imidazol-1-yl)pyridin-2-yl)-4-methylpyridazin-3-amine]
6.5 | CC[C@H](Nc1nnc(-c2ccc(-n3cnc(C)c3)c(OC)n2)cc1C)c1ccc(F)cc1 [Example 40, (S)—N-(1-(4-fluorophenyl)propyl)-6-(6-methoxy-5-(4-methyl-1H-imidazol-1-yl)pyridin-2-yl)-4-methylpyridazin-3-amine]
17.5 | COc1ccccc1[C@H](C)Nc1nnc(-c2ccc(-n3cnc(C)c3)c(OC)n2)cc1C [Example 41, (S)-6-(6-methoxy-5-(4-methyl-1H-imidazol-1-yl)pyridin-2-yl)-N-(1-(2-methoxyphenyl)ethyl)-4-methylpyridazin-3-amine]
7.5 | COc1nc(-c2cc(C)c(N[C@@H](C)c3ccc(C)cc3)nn2)ccc1-n1cnc(C)c1 [Example 42, (S)-6-(6-methoxy-5-(4-methyl-1H-imidazol-1-yl)pyridin-2-yl)-4-methyl-N-(1-(p-tolyl)ethyl)pyridazin-3-amine]
7.5 | COc1nc(-c2cc(C)c(N[C@@H](C)c3cc(C(F)(F)F)cc(C(F)(F)F)c3)nn2)ccc1-n1cnc(C)c1 [Example 43, (S)—N-(1-(3,5-bis(trifluoromethyl)phenyl)ethyl)-6-(6-methoxy-5-(4-methyl-1H-imidazol-1-yl)pyridin-2-yl)-4-methylpyridazin-3-amine]
10.5 | COc1cccc([C@H](C)Nc2nnc(-c3ccc(-n4cnc(C)c4)c(OC)n3)cc2C)c1 [Example 44, (S)-6-(6-methoxy-5-(4-methyl-1H-imidazol-1-yl)pyridin-2-yl)-N-(1-(3-methoxyphenyl)ethyl)-4-methylpyridazin-3-amine]
